{
  "source": "paper PMC3867937",
  "about": "(MedChemComm, 2013)",
  "key": {"[1]": {"tested_on": "membrane permeable strain (BAS3023) of Escherichia coli", "test": "Antibacterial MIC testing, microdilution, E. coli", "assay_type": "cell-based", "conditions": "24 h; for E. coli MIC: membrane permeable strain of E. coli, cation-adjusted Mueller-Hinton Broth, 37°C"}, "[2]": {"tested_on": "membrane permeable strain (BAS3023) of Escherichia coli", "conditions": "cited from earlier work"}, "Bacillus subtilis [3]": {"tested_on": "Bacillus subtilis", "conditions": "cited from earlier work"}, "Bacillus subtilis [4]": {"tested_on": "Bacillus subtilis", "test": "Antibacterial MIC testing, microdilution, B. subtilis", "assay_type": "cell-based", "conditions": "for B. subtilis MIC: cation-adjusted Mueller-Hinton Broth, 24 h, 37°C; for MIC: Bacillus subtilis, read-out: MIC antibacterial activity"}, "E. coli DNA gyrase": {"biological_target": "E. coli DNA gyrase (Escherichia coli, UniProt P0AES4+P0AES6)", "sequence (P0AES4 whole entry, one chain of several)": "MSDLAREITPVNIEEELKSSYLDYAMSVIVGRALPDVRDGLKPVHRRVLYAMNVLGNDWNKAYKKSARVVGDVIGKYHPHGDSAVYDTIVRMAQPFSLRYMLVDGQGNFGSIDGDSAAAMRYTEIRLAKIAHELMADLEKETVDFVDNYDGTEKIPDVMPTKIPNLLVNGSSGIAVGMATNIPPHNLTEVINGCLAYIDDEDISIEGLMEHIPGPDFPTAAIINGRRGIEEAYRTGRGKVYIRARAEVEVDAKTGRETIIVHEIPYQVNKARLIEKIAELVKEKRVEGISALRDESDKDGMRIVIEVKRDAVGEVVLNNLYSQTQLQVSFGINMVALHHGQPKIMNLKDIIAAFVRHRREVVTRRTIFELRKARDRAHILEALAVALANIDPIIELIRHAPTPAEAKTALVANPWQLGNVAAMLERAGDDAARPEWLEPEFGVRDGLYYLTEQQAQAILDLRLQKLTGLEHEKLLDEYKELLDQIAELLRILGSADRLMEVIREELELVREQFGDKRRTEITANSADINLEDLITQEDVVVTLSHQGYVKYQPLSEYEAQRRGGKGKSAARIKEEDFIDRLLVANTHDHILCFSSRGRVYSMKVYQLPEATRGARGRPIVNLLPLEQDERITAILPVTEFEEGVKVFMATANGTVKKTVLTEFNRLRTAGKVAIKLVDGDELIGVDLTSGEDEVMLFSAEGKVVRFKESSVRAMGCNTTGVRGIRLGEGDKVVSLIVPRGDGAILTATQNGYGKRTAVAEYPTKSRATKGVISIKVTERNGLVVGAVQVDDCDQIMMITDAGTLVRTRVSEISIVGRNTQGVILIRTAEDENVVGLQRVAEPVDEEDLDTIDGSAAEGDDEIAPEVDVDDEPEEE", "test": "E. coli DNA gyrase supercoiling assay", "assay_type": "biochemical", "conditions": "for E. coli DNA gyrase IC50: supercoiling assay, relaxed plasmid DNA"}, "E. coli topoisomerase I": {"biological_target": "E. coli topoisomerase I (Escherichia coli, UniProt P06612)", "sequence (P06612 whole entry)": "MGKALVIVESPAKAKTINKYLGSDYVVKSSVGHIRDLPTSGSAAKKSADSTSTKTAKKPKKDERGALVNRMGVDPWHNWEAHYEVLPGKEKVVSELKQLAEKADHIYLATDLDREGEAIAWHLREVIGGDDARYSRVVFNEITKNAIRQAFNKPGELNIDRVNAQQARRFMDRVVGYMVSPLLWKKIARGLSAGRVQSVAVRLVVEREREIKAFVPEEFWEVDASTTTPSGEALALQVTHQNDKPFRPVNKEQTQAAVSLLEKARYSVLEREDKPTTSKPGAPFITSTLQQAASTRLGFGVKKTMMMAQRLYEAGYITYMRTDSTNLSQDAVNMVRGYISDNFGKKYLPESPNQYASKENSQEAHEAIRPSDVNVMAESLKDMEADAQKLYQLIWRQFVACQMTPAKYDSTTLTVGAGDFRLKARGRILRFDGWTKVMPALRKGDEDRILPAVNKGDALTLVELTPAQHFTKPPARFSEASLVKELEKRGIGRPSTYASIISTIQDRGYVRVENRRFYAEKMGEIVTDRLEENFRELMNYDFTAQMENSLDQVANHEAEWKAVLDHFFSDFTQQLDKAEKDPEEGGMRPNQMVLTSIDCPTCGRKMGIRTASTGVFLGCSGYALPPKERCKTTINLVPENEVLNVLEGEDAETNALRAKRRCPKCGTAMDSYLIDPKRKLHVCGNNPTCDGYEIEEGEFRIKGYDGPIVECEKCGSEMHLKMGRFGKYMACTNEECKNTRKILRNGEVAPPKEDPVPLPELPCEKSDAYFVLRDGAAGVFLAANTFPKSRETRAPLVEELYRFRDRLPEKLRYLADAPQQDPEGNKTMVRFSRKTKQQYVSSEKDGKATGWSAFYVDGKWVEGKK", "test": "E. coli topoisomerase I relaxation inhibition assay with supercoiled plasmid DNA", "assay_type": "biochemical", "conditions": "relaxation of supercoiled pBAD/Thio plasmid, 30 min at 37°C"}, "S. rolfsii": {"tested_on": "S. rolfsii", "conditions": "cited from earlier work"}},
  "data": [
    {"smiles": "CCCCCc1cc(OC(=O)c2c(O)cc(O)cc2CCCCC)cc(O)c1C(=O)O", "note": "[Anziaic acid (synthetic sample), anziaic acid]", "values": [
      {"measurement": "E. coli MIC", "setting": "[1]", "result": 100, "unit": "µM"},
      {"measurement": "MIC against membrane permeable strain (BAS3023) of Escherichia coli", "setting": "[2]", "result": 12, "unit": "µg/mL"},
      {"measurement": "MIC against Bacillus subtilis", "setting": "Bacillus subtilis [3]", "result": 6, "unit": "µg/mL"}
    ]},
    {"smiles": "CCCCCc1cc(O)cc(O)c1C(=O)O", "note": "[Compound 4, 2,4-dihydroxy-6-pentylbenzoic acid]", "values": [
      {"measurement": "B. subtilis MIC", "setting": "Bacillus subtilis [4]", "result": "no inhibitory activity"},
      {"measurement": "E. coli MIC", "setting": "[1]", "result": "no inhibitory activity"},
      {"measurement": "IC50", "setting": "E. coli DNA gyrase", "result": "> 1000", "unit": "µM"},
      {"measurement": "E. coli DNA gyrase IC50", "setting": "E. coli DNA gyrase", "result": "no inhibitory activity"}
    ]},
    {"smiles": "CCCCCc1cc(OC(=O)c2c(CCCCC)cc(OCc3ccccc3)cc2OCc2ccccc2)cc(O)c1C(=O)OCc1ccccc1", "note": "[Compound 6, benzyl 4-((2,4-bis(benzyloxy)-6-pentylbenzoyl)oxy)-2-hydroxy-6-pentylbenzoate]", "values": [
      {"measurement": "IC50", "setting": "E. coli DNA gyrase", "result": "> 1000", "unit": "µM"},
      {"measurement": "E. coli DNA gyrase IC50", "setting": "E. coli DNA gyrase", "result": "inactive"},
      {"measurement": "E. coli Topo I inhibition IC50", "setting": "E. coli topoisomerase I", "result": "inactive"}
    ]},
    {"smiles": "O=C(OCc1ccccc1)c1ccc(OC(=O)c2ccc(OCc3ccccc3)cc2OCc2ccccc2)cc1O", "note": "[Compound 10c]", "values": [
      {"measurement": "IC50", "setting": "E. coli DNA gyrase", "result": "> 1000", "unit": "µM"}
    ]},
    {"smiles": "O=C(O)c1ccc(OC(=O)c2ccc(O)cc2O)cc1O", "note": "[Compound 11c]", "values": [
      {"measurement": "B. subtilis MIC", "setting": "Bacillus subtilis [4]", "result": "complete loss"},
      {"measurement": "E. coli MIC", "setting": "[1]", "result": "complete loss"},
      {"measurement": "IC50", "setting": "E. coli DNA gyrase", "result": "> 1000", "unit": "µM"},
      {"measurement": "E. coli DNA gyrase IC50", "setting": "E. coli DNA gyrase", "result": "complete loss"},
      {"measurement": "E. coli Topo I inhibition IC50", "setting": "E. coli topoisomerase I", "result": "complete loss"}
    ]},
    {"smiles": "CCCCCc1cc(O)cc(O)c1C(=O)Oc1cc(CCCCC)c2c(c1)OC(C)(C)OC2=O", "note": "[Compound 14]", "values": [
      {"measurement": "IC50", "setting": "E. coli DNA gyrase", "result": "> 1000", "unit": "µM"},
      {"measurement": "E. coli DNA gyrase IC50", "setting": "E. coli DNA gyrase", "result": "inactive"},
      {"measurement": "E. coli Topo I inhibition IC50", "setting": "E. coli topoisomerase I", "result": "inactive"}
    ]},
    {"smiles": "Nc1ccc(/N=N/c2ccccc2)c(N)c1", "note": "[Compound 18]", "values": [
      {"measurement": "MIC", "setting": "Bacillus subtilis [4]", "result": "200 to 400", "unit": "µM"},
      {"measurement": "MIC", "setting": "[1]; Escherichia coli, read-out: E. coli MIC", "result": "200 to 400", "unit": "µM"}
    ]},
    {"smiles": "O=C(O)c1cc(/N=N/c2cccc([N+](=O)[O-])c2)ccc1O", "note": "[Compound 19]", "values": [
      {"measurement": "MIC", "setting": "Bacillus subtilis [4]", "result": "200 to 400", "unit": "µM"}
    ]},
    {"smiles": "COC(=O)c1c(C)cc(OC(=O)c2c(C)cc(O)c(C=O)c2O)c(C)c1O", "note": "[atranorin]", "values": [
      {"measurement": "ED50 antifungal activity against S. rolfsii", "setting": "S. rolfsii", "result": 39.70, "unit": "µg/mL"}
    ]}
  ]
}
